Test results published in paper PMC10447463, “Data-mining unveils structure–property–activity correlation of viral infectivity enhancing self-assembling peptides” (Nature Communications, 2023).
Where two headings read alike, the source gives them in different places.

Tests used:
Type in all cases: physicochemical
[1] = Zeta-potential measurement
Outline: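 Charge on peptide aggregates was assessed by electrophoretic mobility in 1 mM KCl, converted per Smoluchowski. Prior aggregation: 1 mg/mL, pH 7.4 PBS, 1 d, RT.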

[2] = Turbidity, derived count rate of scattered light; settings: for Count Rate: derived count rate of scattered light (turbidity); for Log10 Count Rate: turbidity, derived count rate of scattered light, data of Figure 2D
[3] = β-sheet content by ATR-FT-IR; settings: for b -sheet / %: Fig. S7 panel A, β-sheet content by ATR-FT-IR
Method: For ATR FT–IR spectroscopy measurements, 200 µL of the respective 1 mg/mL PNF solution was lyophilized and the resulting powder used for measurement. All spectra were recorded on a Bruker Tensor 27 spectrometer with a diamond crystal as ATR element (PIKE MiracleTM, spectral resolution 2 cm^-1). Every sample was measured with 64 scans. Data were analyzed with OriginLab software and calculation of β–sheet content was conducted according to a previous report. TEM. For TEM measurements 5 µL of PNF fibrils (1 mg/mL) were placed on copper grids coated with carbon and formvar layer (300 mesh, Plano GmbH). After 10 min incubation time, the grids were staining with 4% uranyl acetate solution for 2.5 min and washed with water. Measurements were performed on a Jeol 1400 electron microscope with 120 kV acceleration voltage. CR Assay. For the determination of the amount of peptide monomer converting into nanostructures the amine reactive dye fluorescamine was used analogous to a previous reported protocol. Briefly, 100 µL of the preformed PNF solution was centrifuged in a Vivaspin 500 tube (3 kDa MWCO) to separate fibers from free peptide monomer (16200 x g, 4 °C, 45 min). The filtrate and 100 μL of the non-filtered PNF sample were lyophilized and dissolved in 30 μL DMSO. 10 μL of the filtrate and non-filtered DMSO samples were submitted in a black UV Star® 384 microliter well–plates (Greiner bio–one) and 3 μL of the fluorescamine solution (10 mg/mL, DMSO) was added to measure the fluorescence enhancement. After 20 min of incubation at RT, fluorescence was recorded on an Infinite® M1000 PRO microplate reader (Tecan) at λem = 470 nm upon excitation at λex = 365 nm with 10 nm bandwidths and multiple reads per well (3×3). Measurements were repeated in triplicates and averaged with standard deviation. All values were calculated as n-fold fluorescence enhancement (DMSO only as a reference was set to 1). The conversion rate CR was defined according to the equation Eq. (3).3 CR=100−100×fluorescenceintensityfiltrate/fluorescenceintensityoriginal[%]

[4] = zeta-potential of peptide, source data of Figure 2C
[5] = zeta-potential of the peptide assemblies, mean, Figure 3A source data
[6] = zeta potential of peptide assemblies

Substance | Zeta-Pot. [1] | Zeta-Potential / mV [1, 4] [mV] | Zeta-Potential / mV [1, 5] [mV] | Count Rate [2] | Log10 Count Rate [2] | b -sheet / % [3] [%] | Zeta-Pot. [1, 6] | beta sheet ([3]; peptides with TEM 2cat 0)
QCKIKIQINM | 11.37 | 11.15 | 11.37 | 9524 | 3.979 | 37.11 | – | –
KFKFEFEF | – | -2.87 | -2.55 | 2186 | 3.34 | 40.95 | -2.55 | –
KIKIQIMQWN | 9.44 | 8.94 | 9.44 | 2202.7 | 3.343 | 40.38 | – | –
EIEIQINMWQ | -19.13 | -19.93 | -19.13 | 1264 | 3.102 | 53.91 | – | 54
RGDCKFKFQF | – | 16.37 | 13.87 | 1338 | 3.1264 | 46.68 | 13.87 | –
CKIKIQINMW | 18.3 | 18.43 | 18.3 | 4915 | 3.692 | 42.9134 | – | –
CKIKIQINM | – | 14.3 | 16.83 | 4228 | 3.626 | 42.84 | 16.83 | –
CKFKFQFW | 15.2 | 16.02 | 15.2 | 29210.5 | 4.466 | 42.53 | – | –
ILKNLSRSRKIKIQIC | – | 19.25 | 18 | 2392 | 3.379 | 37.6 | 18 | –
ILKNLSRSRKIKIQINMWQ | 19.2 | 17.9 | 19.2 | 306.5 | 2.486 | 39.13 | – | –
KIKQII | – | -6.459 | -12.67 | 122 | 2.086 | 38.67 | -12.67 | –
CKFKQFF | 11.56 | 8.055 | 11.56 | 2.567 | 0.4094 | 45.4057 | – | –
